Bounds are passed on as bounds.

EC50 data for seven molecules are collected here from US12071435B2, “TLR8 agonist” (CHIA TAI TIANQING PHARMACEUTICAL GROUP CO., LTD., priority 2018, dated 2024).

What all share (format): cell-based
Experiment [1] relates to human peripheral blood mononuclear cells (hPBMCs). Description: Cytokine induction (IL-12p40, IFN-γ, TNF-α) in peripheral blood mononuclear cells, flow cytometric bead array. As to conditions: PBMC, hPBMC, 24 h incubation, supernatant, CBA. The text has this:
(§1) TLR8 is a receptor for the innate immune system to sense exogenous pathogens, and can recognize exogenous viral single-stranded RNA and cause the release of a series of cytokines such as TNF-α, IL-12, IFN-γ to elicit an antiviral immune response; TLR7 is another receptor for the innate immune system to sense exogenous pathogens and, when activated, produces primarily such antiviral cytokines as IFN-α. In this experiment, a potential compound of TLR8 agonist was used to stimulate human peripheral blood mononuclear cells (hPBMCs), and the levels of TNF-α, IL-12p40, IFN-γ and IFN-α above were measured to reflect the activation of the compound on TLR8 receptor and its selectivity for TLR8/TLR7.
• 1. Fresh blood of healthy volunteers was collected and anticoagulated with an EDTA-K2 anticoagulation tube (catalog No.: BD-8516542); • 2. hPBMC cells in the middle cloud-like layer were separated after Ficoll density gradient centrifugation, and washed twice with RPMI1640 (source: Gibco, catalog No.: 224400-089) containing 10% serum, and the culture medium was resuspended to 10 mL. After the cells were counted with Vi-cell cell counter, the concentration of cell suspension was adjusted to 2×10^6/mL; • 3. The compound was dissolved in DMSO to 100 mM, and diluted to 50 mM and 2 mM with DMSO, which were served as initial concentrations. Then the solutions were each diluted sequentially in a 3-fold gradient (sample at a previous concentration (5 μL)+DMSO (10 μL)) to obtain 8 gradients. The resulting solutions were respectively subjected to 500-fold dilution with the culture medium to prepare the working solutions of the compound; • 4. […] IL-12p40, TNF-α and IFN-γ in the supernatant were detected by flow cytometric bead array (CBA); IFN-α in the cell supernatant was detected by enzyme-linked immuno sorbent assay (ELISA). • 6. Data analysis: compound activity: EC50 values (half maximal effect concentration) were analyzed using a GraphPad Prism software and the dose-response curves of the compound were fitted to calculate EC50 values for the compound.

The test system is the same in experiment [2]. Description: IFN-α induction in peripheral blood mononuclear cells, ELISA. As to conditions: PBMC, hPBMC, 24 h incubation, supernatant, up to 50 μM.
Source text: as §1
• 1. […] After the cells were counted with Vi-cell cell counter, the concentration of cell suspension was adjusted to 2×10^6/mL; • 3. […] IL-12p40, TNF-α and IFN-γ in the supernatant were detected by flow cytometric bead array (CBA); IFN-α in the cell supernatant was detected by enzyme-linked immuno sorbent assay (ELISA). • 6. Data analysis: compound activity: EC50 values (half maximal effect concentration) were analyzed using a GraphPad Prism software and the dose-response curves of the compound were fitted to calculate EC50 values for the compound.

A further experiment concerns the target Human TLR8 (Homo sapiens (Human), UniProt Q9NR97). Description: HEK-Blue hTLR8 SEAP reporter gene assay (agonistic activity). The settings on record: HEK-Blue hTLR8 cells, 24 h incubation, SEAP by QUANTI-Blue OD650. The text has this:
(§2) The HEK-Blue™ hTLR7 (catalog No.: hkb-ht1r7) and HEK-Blue™ hTLR8 (catalog No.: hkb-ht1r8) cell lines used in this experiment were purchased from InvivoGen. The two cell lines were constructed by a human embryonic kidney 293 cell line stably co-transfecting hTLR7 or hTLR8 and inducing expression of Secreted Alkaline Phosphatase (SEAP) reporter gene, wherein SEAP reporter gene was regulated by an IFN-β promoter. The promoter was fused with NF-κB and AP-1 binding sites. hTLR7 or hTLR8 agonist can activate NF-κB and AP-1 and induce the expression and secretion of SEAP. The agonistic activity of compound for hTLR7 and hTLR8 receptors was identified by measuring the expression level of SEAP using QUANTI-Blue™ reagent.
(§3) • 1. Compound was diluted in 3-fold gradients (10 concentration points in total) and added to the cell plate in duplicate. 1 μL of DMSO was added to each negative control well. • 2. The cells cultured in a T150 flask were taken out from a CO2 incubator, and the cell culture supernatant was discarded. The resulting cells were washed once with Dulbecco's phosphate buffered saline (DPBS). The flask was added with about 10 mL of the culture medium, and tapped to detach the cells. The resulting cell mass was gently pipetted evenly. The cells were counted and the cell suspension was adjusted to 500,000 cells/mL with the culture medium. Then 100 μL of diluted cells were added to each well (50,000 cells/well) of a 96-well plate containing the compound. • 3. The compound and cells were incubated in an incubator at 37° C., 5% CO2 for 24 h. • 4. Activity assay on the compound: 20 μL of the induced cell supernatant from each well was added to a cell culture plate containing 180 μL of QUANTI-Blue™ reagent, and after incubation at 37° C. for 1 h, the optical density absorbance at 650 nm (OD650) was assayed for each well using a multi-functional microplate reader. • 5. Activity assay on the cells: luciferase signal (RLU) was detected using a multi-functional microplate reader as per the process described in the instructions of ATPlite 1Step. • 6. Data analysis: compound activity: OD650 values were analyzed using GraphPad Prism software and the dose-response curves of the compounds were fitted to calculate EC50 values (half maximal effect concentration) for the compounds.

In another experiment the target is Human TLR7 (Homo sapiens (Human), UniProt Q9NYK1). Description: HEK-Blue hTLR7 SEAP reporter gene assay (agonistic activity). The settings on record: HEK-Blue hTLR7 cells, 24 h incubation, SEAP by QUANTI-Blue OD650.
Source text: as §2, §3

Human TLR7, sequence (Q9NYK1 27-1049): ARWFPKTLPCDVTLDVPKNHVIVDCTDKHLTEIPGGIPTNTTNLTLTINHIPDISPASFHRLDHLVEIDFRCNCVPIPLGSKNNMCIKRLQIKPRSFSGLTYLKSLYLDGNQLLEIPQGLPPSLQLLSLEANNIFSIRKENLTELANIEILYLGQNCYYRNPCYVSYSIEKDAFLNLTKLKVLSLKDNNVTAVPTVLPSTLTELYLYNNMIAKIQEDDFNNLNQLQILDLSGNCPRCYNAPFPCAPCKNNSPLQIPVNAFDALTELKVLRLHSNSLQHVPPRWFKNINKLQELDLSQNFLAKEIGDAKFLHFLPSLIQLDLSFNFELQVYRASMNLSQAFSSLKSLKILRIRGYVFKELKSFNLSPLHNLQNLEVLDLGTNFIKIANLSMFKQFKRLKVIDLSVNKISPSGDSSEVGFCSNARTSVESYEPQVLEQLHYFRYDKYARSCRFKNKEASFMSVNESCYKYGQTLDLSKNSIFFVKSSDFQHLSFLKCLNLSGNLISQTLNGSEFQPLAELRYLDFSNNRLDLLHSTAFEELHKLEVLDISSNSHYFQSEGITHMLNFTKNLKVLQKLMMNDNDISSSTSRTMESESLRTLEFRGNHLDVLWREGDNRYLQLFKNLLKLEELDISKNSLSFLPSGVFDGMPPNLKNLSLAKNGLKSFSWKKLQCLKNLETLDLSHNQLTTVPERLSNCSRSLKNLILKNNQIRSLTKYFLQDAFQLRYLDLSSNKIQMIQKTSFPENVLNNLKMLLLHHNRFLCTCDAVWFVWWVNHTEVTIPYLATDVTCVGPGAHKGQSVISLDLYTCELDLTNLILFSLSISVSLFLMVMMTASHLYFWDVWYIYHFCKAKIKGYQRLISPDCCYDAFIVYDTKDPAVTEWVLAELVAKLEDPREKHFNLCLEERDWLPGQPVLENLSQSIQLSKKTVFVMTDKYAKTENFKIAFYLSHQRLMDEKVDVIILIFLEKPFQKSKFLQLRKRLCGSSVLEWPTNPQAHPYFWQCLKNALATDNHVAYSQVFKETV
Human TLR8, sequence (Q9NR97 27-1041): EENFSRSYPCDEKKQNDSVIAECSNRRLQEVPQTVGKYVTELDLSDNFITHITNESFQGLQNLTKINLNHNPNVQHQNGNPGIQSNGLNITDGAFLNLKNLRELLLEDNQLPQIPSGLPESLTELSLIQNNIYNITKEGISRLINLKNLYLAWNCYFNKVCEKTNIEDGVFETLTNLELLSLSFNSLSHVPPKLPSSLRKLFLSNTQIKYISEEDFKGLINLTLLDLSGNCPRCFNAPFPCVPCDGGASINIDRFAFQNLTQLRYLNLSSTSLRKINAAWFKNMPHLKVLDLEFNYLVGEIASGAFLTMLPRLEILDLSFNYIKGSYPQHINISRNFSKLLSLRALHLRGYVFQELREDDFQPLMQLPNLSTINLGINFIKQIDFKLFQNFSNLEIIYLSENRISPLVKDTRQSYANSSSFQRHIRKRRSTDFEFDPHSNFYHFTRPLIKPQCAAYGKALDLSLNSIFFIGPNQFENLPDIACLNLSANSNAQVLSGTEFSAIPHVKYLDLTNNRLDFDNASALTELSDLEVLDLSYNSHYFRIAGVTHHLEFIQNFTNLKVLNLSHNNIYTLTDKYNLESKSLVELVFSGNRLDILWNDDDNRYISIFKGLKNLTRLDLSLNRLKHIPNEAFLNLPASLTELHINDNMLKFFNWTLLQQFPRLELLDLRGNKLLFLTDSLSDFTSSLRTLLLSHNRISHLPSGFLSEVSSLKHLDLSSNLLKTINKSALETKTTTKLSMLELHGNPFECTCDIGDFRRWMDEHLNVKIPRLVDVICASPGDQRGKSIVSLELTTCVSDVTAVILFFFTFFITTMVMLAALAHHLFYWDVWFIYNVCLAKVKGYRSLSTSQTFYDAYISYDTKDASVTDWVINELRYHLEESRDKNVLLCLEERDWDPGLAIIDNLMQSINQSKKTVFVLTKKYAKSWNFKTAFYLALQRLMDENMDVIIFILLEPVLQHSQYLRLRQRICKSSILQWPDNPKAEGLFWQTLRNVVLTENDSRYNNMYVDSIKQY

`CCCCC(C)(CNC(=O)[C@@H]1CCCN1)Nc1nc(N)nc2cccnc12` (single isomer, unassigned) [Compound 1]: the EC50 in experiment [1] (read-out: IFN-γ EC50) is 15 nM; in experiment [1] (read-out: IL-12p40 EC50) it was 6 nM; in experiment [1] (read-out: TNF-α EC50) it was 30 nM; in experiment [2] it was over 50000 nM; on Human TLR8, 2 nM; on Human TLR7, over 15000 nM.

Turning to `CCCCC(C)(CNC(=O)[C@@H]1COCCN1)Nc1nc(N)nc2cccnc12` (single isomer, unassigned) [Compound 4], the EC50 was 14 nM on Human TLR8 and over 15000 nM at Human TLR7.

`CCCCC(C)(CNC(=O)[C@@H]1CC(F)(F)CN1)Nc1nc(N)nc2cccnc12` (single isomer, unassigned) [Compound 5]: the figures for the EC50 at Human TLR8 and on Human TLR7 were 106 nM and over 15000 nM, respectively.

Turning to `CCCCC(C)(CNC(=O)[C@@H]1CCCCN1)Nc1nc(N)nc2cccnc12` (single isomer, unassigned) [Compound 6], the EC50 at Human TLR8 is 18 nM; at Human TLR7, over 15000 nM.

As for `CCCCC(C)(CNC(=O)[C@@H]1CCN1)Nc1nc(N)nc2cccnc12` (single isomer, unassigned) [Compound 7], the EC50 at Human TLR8 was 15 nM; on Human TLR7, over 15000 nM.

In the case of `CCCCC(C)(CNC(=O)[C@@H]1CCCN1)Nc1nc(N)nc2cnccc12` (stereo partly drawn) [Compound 2], the results for the EC50 at Human TLR8 and at Human TLR7 were 6 nM and over 15000 nM, respectively.

`CCCCC(C)(CNC(=O)[C@@H]1CCCN1)Nc1nc(N)nc2ccccc12` (stereo partly drawn) [Compound 3]: the EC50 at Human TLR8 is 32 nM; at Human TLR7 it was over 15000 nM.
